Results published in PubChem BioAssay (NCI).
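Following 48 hours of exposure in 96-well plates, responses at five concentrations were used to interpolate endpoints linearly. GI50 = concentration required for 50% inhibition of growth. TGI: total growth inhibition.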

How the values were obtained:
Assay in all cases: NCI anticancer screen, dose series, 48 h
A549 NSCLC = tested on: A549 NSCLC
HCT-116 colon = tested on: HCT-116 colon
HT29 colon = tested on: HT29 colon
NCI/ADR-RES ovarian = tested on: NCI/ADR-RES ovarian
OVCAR-4 ovarian = tested on: OVCAR-4 ovarian
PC-3 prostate = tested on: PC-3 prostate
SF-539 CNS = tested on: SF-539 CNS
SK-MEL-2 melanoma = tested on: SK-MEL-2 melanoma
SK-MEL-5 melanoma = tested on: SK-MEL-5 melanoma
U251 CNS = tested on: U251 CNS

| Compound | GI50 (A549 NSCLC) | TGI (A549 NSCLC) | GI50 (HCT-116 colon) | TGI (HCT-116 colon) | GI50 (HT29 colon) | TGI (HT29 colon) | GI50 (NCI/ADR-RES ovarian) | TGI (NCI/ADR-RES ovarian) | GI50 (OVCAR-4 ovarian) | TGI (OVCAR-4 ovarian) | GI50 (PC-3 prostate) | TGI (PC-3 prostate) | GI50 (SF-539 CNS) | TGI (SF-539 CNS) | GI50 (SK-MEL-2 melanoma) | TGI (SK-MEL-2 melanoma) | GI50 (SK-MEL-5 melanoma) | TGI (SK-MEL-5 melanoma) | GI50 (U251 CNS) | TGI (U251 CNS) |
| --- | --- | --- | --- | --- | --- | --- | --- | --- | --- | --- | --- | --- | --- | --- | --- | --- | --- | --- | --- | --- |
| CCN(CC)CCOc1ccc(Cc2ccccc2)cc1 | 49800 nM | > 100 µM | 34800 nM | > 100 µM | 12300 nM | 33.9 µM | 26200 nM | > 100 µM | 33.5 µM | > 100 µM | 26200 nM | > 100 µM | 32100 nM | > 100 µM | 13900 nM | 50.5 µM | 15100 nM | 28.5 µM | 26500 nM | > 100 µM |
| CC(=Nc1ccccc1)C1=C(O)C(Cc2ccc(F)cc2)NC1=O (configuration not stated) | 675 nM | > 100 µM | 490 nM | > 100 µM | 339 nM | > 100 µM | 420 nM | 13.8 µM | 14.4 µM | > 100 µM | 894 nM | > 100 µM | 1360 nM | 12.1 µM | 423 nM | > 100 µM | 472 nM | > 100 µM | 825 nM | > 100 µM |
| CCCC(=O)Nc1c(I)cc(I)c(CC(CC)C(=O)O)c1I (configuration not stated) | > 100000 nM | > 100 µM | > 100000 nM | > 100 µM | > 100000 nM | > 100 µM | > 100000 nM | > 100 µM | > 100 µM | > 100 µM | > 100000 nM | > 100 µM | > 100000 nM | > 100 µM | > 100000 nM | > 100 µM | > 100000 nM | > 100 µM | > 100000 nM | > 100 µM |
| COc1ccc(C[C@H]2NC[C@H](O)[C@H]2OC(C)=O)cc1 | 41.3 nM | 3.48 µM |  | 0.146 µM |  | 0.179 µM |  | 0.369 µM |  | 0.194 µM |  | 0.49 µM |  | 0.14 µM |  | 0.398 µM | 17.6 nM | 0.0585 µM |  | 2.02 µM |
| CN1CCN(c2ccc(-c3cccc(CN4CCOCC4)c3)cc2NC(=O)c2c[nH]c(=O)cc2C(F)(F)F)CC1 | 53500 nM | > 100 µM | 16400 nM | > 100 µM | 17900 nM | 58.3 µM | > 100000 nM | > 100 µM | 55.9 µM | > 100 µM | 32300 nM | > 100 µM | 19500 nM | 44.7 µM | 27300 nM | 72 µM | 14200 nM | 28.3 µM | 23600 nM | > 100 µM |
| CCCCCC(=C/c1ccccc1)/C=N/N=C(N)N | 1730 nM | 3.23 µM | 1320 nM | 2.72 µM | 1580 nM | 3.27 µM | 1530 nM | 3.3 µM | 1.46 µM | 2.84 µM | 1400 nM | 2.92 µM | 1950 nM | 3.71 µM | 1700 nM | 3.2 µM | 1660 nM | 3.04 µM | 1700 nM | 3.18 µM |
| CC(C)=CCc1c(O)c(C(=O)CC(C)C)c(O)c2c(-c3ccccc3)cc(=O)oc12 | 12000 nM | > 50 µM | 7270 nM | 43.3 µM | 14100 nM | > 50 µM | 9250 nM | > 50 µM | 9.98 µM | 35.6 µM | 5710 nM | 39.8 µM | 5820 nM | 22.5 µM | 6180 nM | 28.7 µM | 3380 nM | 12.3 µM | 9590 nM | > 50 µM |
| CCCCCCC/C=C1\CCC(CN(C)C)C1=O (configuration not stated) |  | 50 µM |  | 22.3 µM |  | 29.9 µM |  | 14.6 µM |  | 33.6 µM |  | 27.6 µM |  | 32.7 µM |  | 29.8 µM |  | 34 µM |  | 32.1 µM |
| COC1C(O)CC(OC2CC(OC3CC(O[C@@H]4C(=O)c5c(cc6cc(OC7CC(OC8CC(O)C(O)C(C)O8)C(O)C(C)O7)c(C)c(O)c6c5O)CC4[C@H](OC)[C@@H](O)C(C)=O)OC(C)C3O)OC(C)C2O)OC1C (some centres not stated) | 7.97 nM | > 33.3 µM | 6.21 nM | > 33.3 µM | 9.95 nM | 0.0295 µM | > 28200 nM | > 33.3 µM | < 0.0282 µM | > 23.9 µM | 24.3 nM | > 33.3 µM | 9.02 nM | 0.463 µM | 16.7 nM | 0.0492 µM | 9.93 nM | 0.0392 µM | 12.5 nM | > 33.3 µM |
| CN[C@H]1CC[C@]23C[C@]24CC[C@]2(C)[C@@H]([C@H](C)N(C)C)CC[C@@]2(C)[C@@H]4CC[C@H]3C1(C)C |  | 39.2 µM |  | 24 µM |  | 14.2 µM |  | 36.6 µM |  | 53.7 µM |  | 29 µM |  | 26.7 µM |  | 40 µM |  | 29.4 µM |  | 27.6 µM |
| CNC(=S)N(C1CCCCC1)C1CCCCC1 |  | > 100 µM |  | > 100 µM |  | > 100 µM |  | > 100 µM |  | > 100 µM |  | > 100 µM |  | > 100 µM |  | > 100 µM |  | > 100 µM |  | > 100 µM |
| O=C(Nc1ccc(-n2ccc3c(NC(=O)c4ccccc4)nccc32)cc1)c1ccc(N2CCOCC2)c(C(F)(F)F)c1 | 48.8 nM | 4.15 µM | 35 nM | 15.7 µM | 47.6 nM | 3.71 µM | 198 nM | 29.9 µM | 7.09 µM | > 60.8 µM | 1020 nM | 52.5 µM | 51.3 nM | 6.79 µM | 236 nM | 15.8 µM | 92.8 nM | 10.8 µM | 44.1 nM | 8.16 µM |
| COc1ccc(C(=O)c2cc(C)c(OC)c(C)c2)c(OC)c1N(C(=O)CCl)C(=O)CCl | 83.4 nM | > 100 µM | 63.8 nM | 10.8 µM | 307 nM | 22.5 µM | 31.1 nM | 1.48 µM | 0.719 µM | > 67 µM | 46.7 nM | 18.4 µM | 30.2 nM | 0.141 µM | 52.2 nM | 19.7 µM | 55.4 nM | 1.96 µM | 50.9 nM | 20.3 µM |
| NC(N)=NC(N)=Nc1ccc(S(N)(=O)=O)cc1 |  | > 100 µM |  | > 100 µM |  | > 100 µM |  | > 100 µM |  | > 100 µM |  | > 100 µM |  | > 100 µM |  | > 100 µM |  | > 100 µM |  | > 100 µM |
